Literature values in patent US12062414B1, “System and method for predicting susceptibility of genus Klebsiella to amikacin” (Peking Union Medical College Hospital, Chinese Academy of …, priority 2023, dated 2024).

System: carbapenem-resistant Klebsiella pneumoniae
Conditions: isolated from 2014-2017; data from 252/403

For `NCC[C@H](O)C(=O)N[C@@H]1C[C@H](N)[C@@H](O[C@H]2O[C@H](CN)[C@@H](O)[C@H](O)[C@H]2O)[C@H](O)[C@H]1O[C@H]1O[C@H](CO)[C@@H](O)[C@H](N)[C@H]1O` [amikacin], the “resistance rate to amikacin” value is given as 62.5%.
